Data from patent US20230085307A1, “PYRIDAZINONE COMPOUND AND HERBICIDE” (NISSAN CHEMICAL CORPORATION, priority 2019, published 2023).

What was measured:
[1] = system: late watergrass; experiment: Test Example 1: herbicidal activity, application before weed generation under submerged conditions (Table 16, symbol A); format: in vivo, late watergrass (Echinochloa oryzicola); conditions: 320 g/ha applied herbicide
Outline: (§1)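 Submerged Wagner pots (alluvial soil, 4 cm water) sown with weed seeds and planted with 2.5-leaf rice seedlings; emulsifiable concentrate diluted in water applied to water surface on sowing day. Held in greenhouse at 25-30 °C; injury scored 0-5 by herbicidal rate after three weeks.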

[2] = system: oval-leafed pondweed; experiment: Test Example 1: herbicidal activity, application before weed generation under submerged conditions (Table 16, symbol C); format: in vivo, oval-leafed pondweed (Monochoria vaginalis); conditions: 320 g/ha applied herbicide
Outline: as §1

[3] = system: Japanese bulrush; experiment: Test Example 2: herbicidal activity, application during weed generation under submerged conditions (Table 17, symbol B); format: in vivo, Japanese bulrush (Schoenoplectus juncoides); conditions: AAH 320 g/ha; application during weed generation, submerged conditions
Outline: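 3-wk visual-criteria score after one water-surface dose. Emulsion formulation, water-diluted to set rate; applied at 1–2 leaf stage; alluvial soil, 4 cm standing water; seeds co-sown; greenhouse 25–30° C.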

[4] = system: barnyard grass; experiment: Test Example 3: herbicidal effect by foliage application, Wagner pot (Table 18, symbol H); format: in vivo, barnyard grass (Echinochloa crus-galli); conditions: 320 g/ha
Outline: (§2)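 Plants were sown in alluvial soil held under 0.1–0.5 cm standing water and grown 14 days in a greenhouse at 25–30 °C. An emulsifiable formulation, water-diluted to the set dose, was then sprayed onto the foliage, and effects were scored three weeks later using previously defined criteria.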

[5] = system: rice flat sedge; experiment: Test Example 3: herbicidal effect by foliage application, Wagner pot (Table 18, symbol E); format: in vivo, rice flat sedge (Cyperus iria); conditions: 320 g/ha
Outline: as §2

[6] = system: green foxtail; experiment: Test Example 4: herbicidal effect by soil treatment (Table 19, symbol G); format: in vivo, green foxtail (Setaria viridis); conditions: 320 g/ha
Outline: (§3)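 Seeds were sown in sterilized diluvial soil and covered with about 1.5 cm of soil. An emulsion formulation diluted with water to a predetermined herbicide amount was sprayed evenly onto the soil surface. Plants grew in a greenhouse at 25° C. to 30° C., and the effect was scored three weeks after application using criteria from an earlier test.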

[7] = system: barnyard grass; experiment: Test Example 4: herbicidal effect by soil treatment (Table 19, symbol H); format: in vivo, barnyard grass (Echinochloa crus-galli); conditions: 320 g/ha
Outline: as §3

[8] = system: velvetleaf; experiment: Test Example 4: herbicidal effect by soil treatment (Table 19, symbol M); format: in vivo, velvetleaf (Abutilon theophrasti); conditions: 320 g/ha
Outline: as §3

[9] = system: redroot pigweed; experiment: Test Example 4: herbicidal effect by soil treatment (Table 19, symbol N); format: in vivo, redroot pigweed (Amaranthus retroflexus); conditions: 320 g/ha
Outline: as §3

[10] = system: chickweed; experiment: Test Example 4: herbicidal effect by soil treatment (Table 19, symbol P); format: in vivo, common chickweed (Stellaria media); conditions: 320 g/ha
Outline: as §3

[11] = system: persian speedwell; experiment: Test Example 4: herbicidal effect by soil treatment (Table 19, symbol R); format: in vivo, Persian speedwell (Veronica persica); conditions: 320 g/ha
Outline: as §3

[12] = system: southern crabgrass; experiment: Test Example 5: herbicidal effect by foliage application, plastic box (Table 20, symbol F); format: in vivo, southern crabgrass (Digitaria ciliaris); conditions: foliage application, 320 g/ha, 3 weeks after application
Outline: (§4)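 Plants sown in sterilized diluvial soil and grown 14 days in a greenhouse at 25° C to 30° C, then sprayed on the foliage with the compound's emulsion diluted in water to a predetermined herbicide amount. Injury to weeds and crops scored three weeks after application on a visual rating scale.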

[13] = system: barnyard grass; experiment: Test Example 5: herbicidal effect by foliage application, plastic box (Table 20, symbol H); format: in vivo, barnyard grass (Echinochloa crus-galli); conditions: foliage application, 320 g/ha, 3 weeks after application
Outline: as §4

[14] = system: wild oat; experiment: Test Example 5: herbicidal effect by foliage application, plastic box (Table 20, symbol I); format: in vivo, wild oat (Avena fatua); conditions: foliage application, 320 g/ha, 3 weeks after application
Outline: as §4

[15] = system: blackgrass; experiment: Test Example 5: herbicidal effect by foliage application, plastic box (Table 20, symbol J); format: in vivo, blackgrass (Alopecurus myosuroides); conditions: foliage application, 320 g/ha, 3 weeks after application
Outline: as §4

[16] = system: persian speedwell; experiment: Test Example 5: herbicidal effect by foliage application, plastic box (Table 20, symbol R); format: in vivo, Persian speedwell (Veronica persica); conditions: foliage application, 320 g/ha, 3 weeks after application
Outline: as §4

Structure (SMILES)	Herbicidal effect on A: late watergrass (grade 0-5) [1]	Herbicidal effect on C: oval-leafed pondweed (grade 0-5) [2]	herbicidal effect rating, B: Japanese bulrush [3]	herbicidal effect on H (barnyard grass), rating 0-5 [4]	herbicidal effect on E (rice flat sedge), rating 0-5 [5]	herbicidal effect rating, G: green foxtail [6]	herbicidal effect rating, H: barnyard grass [7]	herbicidal effect rating, M: velvetleaf [8]	herbicidal effect rating, N: redroot pigweed [9]	herbicidal effect rating, P: chickweed [10]	herbicidal effect rating, R: persian speedwell [11]	effect on southern crabgrass (F) [12]	effect on barnyard grass (H) [13]	effect on wild oat (I) [14]	effect on blackgrass (J) [15]	effect on persian speedwell (R) [16]
Cc1ccc(-c2sc3ccc(F)cc3c2-c2c(O)c(C)nn(C)c2=O)cc1 [2-012]	3 (Herbicidal rate of 40% or more and less than 70%)	0 (Herbicidal rate of 5% or less (almost no effect))	3 (Herbicidal rate of 40% or more and less than 70%)	5 (Herbicidal rate of 90% or more (almost completely withered))	5 (Herbicidal rate of 90% or more (almost completely withered))	5 (Herbicidal rate of 90% or more (almost completely withered))	5 (Herbicidal rate of 90% or more (almost completely withered))	4 (Herbicidal rate of 70% or more and less than 90%)	5 (Herbicidal rate of 90% or more (almost completely withered))	4 (Herbicidal rate of 70% or more and less than 90%)	5 (Herbicidal rate of 90% or more (almost completely withered))	5 (Herbicidal rate of 90% or more (almost completely withered))	4 (Herbicidal rate of 70% or more and less than 90%)	0 (Herbicidal rate of 5% or less (almost no effect))	4 (Herbicidal rate of 70% or more and less than 90%)	5 (Herbicidal rate of 90% or more (almost completely withered))
CCCC(=O)Oc1c(C)nn(C)c(=O)c1-c1c(-c2ccc(C)cc2)sc2ccc(F)cc12 [2-013]	3 (Herbicidal rate of 40% or more and less than 70%)	2 (Herbicidal rate of 20% or more and less than 40%)	2 (Herbicidal rate of 20% or more and less than 40%)	5 (Herbicidal rate of 90% or more (almost completely withered))	5 (Herbicidal rate of 90% or more (almost completely withered))	5 (Herbicidal rate of 90% or more (almost completely withered))	4 (Herbicidal rate of 70% or more and less than 90%)	3 (Herbicidal rate of 40% or more and less than 70%)	4 (Herbicidal rate of 70% or more and less than 90%)	3 (Herbicidal rate of 40% or more and less than 70%)	4 (Herbicidal rate of 70% or more and less than 90%)	5 (Herbicidal rate of 90% or more (almost completely withered))	5 (Herbicidal rate of 90% or more (almost completely withered))	0 (Herbicidal rate of 5% or less (almost no effect))	1 (Herbicidal rate of 5% or more and less than 20%)	5 (Herbicidal rate of 90% or more (almost completely withered))
